Data: PubChem BioAssay AID180 (DTP/NCI, 2004)
“And” between values parts separate entries of the source, which are not always exact repeats. Equal values may be shown once.

Tested on: BDF1 mice, Adenocarcinoma 755 s.c., tumor weight T/C
Assay: NCI In Vivo Anticancer Drug Screen. Data for tumor model Adenocarcinoma 755 (subcutaneous) in B6D2F1 (BDF1) mice
Details: endpoint: mean tumor weight, higher = larger tumour
In short: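 In vivo antitumor screen on a transplantable tumor line. Result equals the measure in compound-treated animals divided by the same measure in vehicle controls.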

[1] = dose: 30.0 mg/kg/injection, schedule: Q01DX011 (ip), vehicle: saline
[2] = dose: 200.0 mg/kg/injection, schedule: Q01DX011 (ip), vehicle: saline
[3] = dose: 12.5 mg/kg/injection, schedule: Q01DX011 (ip), vehicle: saline
[4] = dose: 25.0 mg/kg/injection, schedule: Q01DX011 (ip), vehicle: saline
[5] = dose: 50.0 mg/kg/injection, schedule: Q01DX011 (ip), vehicle: saline
[6] = dose: 100.0 mg/kg/injection, schedule: Q01DX011 (ip), vehicle: other
[7] = dose: 75.0 mg/kg/injection, schedule: Q01DX011 (ip), vehicle: saline
[8] = dose: 12.5 mg/kg/injection, schedule: Q01DX011 (ip), vehicle: methylcellulose (MC)
[9] = dose: 25.0 mg/kg/injection, schedule: Q01DX011 (ip), vehicle: methylcellulose (MC)
[10] = dose: 50.0 mg/kg/injection, schedule: Q01DX011 (ip), vehicle: methylcellulose (MC)

SMILES: Nc1ccn(C2OC(CO)C(O)C2O)c(=O)n1 (stereo not given)
- T/C (dose: 15.0 mg/kg/injection, schedule: Q01DX011 (ip), vehicle: saline): 36 % of control
- T/C (dose: 27.0 mg/kg/injection, schedule: Q01DX011 (ip), vehicle: saline): 14 % of control
- T/C [1]: 36 % of control
- T/C (dose: 40.0 mg/kg/injection, schedule: Q01DX011 (ip), vehicle: saline): 7 % of control
- T/C (dose: 60.0 mg/kg/injection, schedule: Q## X024 (ip), vehicle: saline): 15 % of control
- T/C (dose: 120.0 mg/kg/injection, schedule: Q## X024 (ip), vehicle: saline): 8 % of control

SMILES: CCCCOP(=O)(N1CC1C)N1CC1C (stereo not given)
- T/C (dose: 2.0 mg/kg/injection, schedule: Q01DX011 (ip), vehicle: saline): 92 % of control and 96 % of control and 114 % of control
- T/C (dose: 32.0 mg/kg/injection, schedule: Q01DX011 (ip), vehicle: saline): 25 % of control

SMILES: c1ccc2nc(-c3cc4ccccc4s3)ccc2c1
- T/C (dose: 133.0 mg/kg/injection, schedule: Q01DX011 (ip), vehicle: carboxymethylcellulose (CMC)): 42 % of control
- T/C (dose: 133.0 mg/kg/injection, schedule: Q01DX011 (ip), vehicle: saline): 42 % of control
- T/C (dose: 200.0 mg/kg/injection, schedule: Q01DX011 (ip), vehicle: carboxymethylcellulose (CMC)): 53 % of control
- T/C [2]: 39 % of control
- T/C (dose: 300.0 mg/kg/injection, schedule: Q01DX011 (ip), vehicle: carboxymethylcellulose (CMC)): 24 % of control
- T/C (dose: 300.0 mg/kg/injection, schedule: Q01DX011 (ip), vehicle: saline): 34 % of control
- T/C (dose: 450.0 mg/kg/injection, schedule: Q01DX011 (ip), vehicle: saline): 21 % of control

SMILES: CC(=O)OCC(=O)[C@@]1(O)CC[C@H]2[C@@H]3C[C@H](C)C4=CC(=O)C=C[C@]4(C)[C@@]3(F)[C@@H](O)C[C@@]21C
- T/C (dose: 0.06 mg/kg/injection, schedule: Q01DX011 (sc), vehicle: steriod suspending solution): 101 % of control
- T/C (dose: 0.13 mg/kg/injection, schedule: Q01DX011 (sc), vehicle: steriod suspending solution): 87 % of control
- T/C (dose: 4.0 mg/kg/injection, schedule: Q01DX011 (sc), vehicle: steriod suspending solution): 49 % of control
- T/C (dose: 5.0 mg/kg/injection, schedule: Q01DX011 (sc), vehicle: steriod suspending solution): 48 % of control
- T/C (dose: 9.0 mg/kg/injection, schedule: Q01DX011 (sc), vehicle: steriod suspending solution): 37 % of control
- T/C (dose: 10.0 mg/kg/injection, schedule: Q01DX011 (sc), vehicle: steriod suspending solution): 34 % of control
- T/C (dose: 18.0 mg/kg/injection, schedule: Q01DX011 (sc), vehicle: steriod suspending solution): 37 % of control and 51 % of control
- T/C (dose: 20.0 mg/kg/injection, schedule: Q01DX011 (sc), vehicle: steriod suspending solution): 21 % of control
- T/C (dose: 37.0 mg/kg/injection, schedule: Q01DX011 (sc), vehicle: steriod suspending solution): 13 % of control and 22 % of control
- T/C (dose: 75.0 mg/kg/injection, schedule: Q01DX011 (sc), vehicle: steriod suspending solution): 15 % of control

SMILES: COCCCNS(=O)(=O)c1ncnc2nc[nH]c12
- T/C (dose: 1.0 mg/kg/injection, schedule: Q01DX011 (ip), vehicle: carboxymethylcellulose (CMC)): 79 % of control
- T/C (dose: 1.0 mg/kg/injection, schedule: Q01DX011 (ip), vehicle: saline): 74 % of control
- T/C (dose: 2.5 mg/kg/injection, schedule: Q01DX011 (ip), vehicle: saline): 96 % of control
- T/C (dose: 3.0 mg/kg/injection, schedule: Q01DX011 (ip), vehicle: carboxymethylcellulose (CMC)): 63 % of control and 81 % of control
- T/C (dose: 3.0 mg/kg/injection, schedule: Q01DX011 (ip), vehicle: saline): 163 % of control
- T/C (dose: 5.0 mg/kg/injection, schedule: Q01DX011 (ip), vehicle: carboxymethylcellulose (CMC)): 86 % of control
- T/C (dose: 6.0 mg/kg/injection, schedule: Q01DX011 (ip), vehicle: other): 105 % of control
- T/C (dose: 10.0 mg/kg/injection, schedule: Q01DX011 (ip), vehicle: carboxymethylcellulose (CMC)): 80 % of control
- T/C (dose: 12.0 mg/kg/injection, schedule: Q01DX011 (ip), vehicle: other): 43 % of control
- T/C (dose: 12.5 mg/kg/injection, schedule: Q01DX011 (ip), vehicle: carboxymethylcellulose (CMC)): 8 % of control (2×) and 30 % of control
- T/C [3]: 24 % of control
- T/C (dose: 25.0 mg/kg/injection, schedule: Q01DX011 (ip), vehicle: other): 37 % of control
- T/C [4]: 5 % of control and 9 % of control
- T/C (dose: 50.0 mg/kg/injection, schedule: Q01DX011 (ip), vehicle: carboxymethylcellulose (CMC)): 3 % of control and 4 % of control
- T/C [5]: 5 % of control
- T/C (dose: 100.0 mg/kg/injection, schedule: Q01DX011 (ip), vehicle: carboxymethylcellulose (CMC)): 3 % of control
- T/C [6]: 7 % of control
- T/C [2]: 1 % of control

SMILES: COC1=NC2=NCCN2C(OC)=N1
- T/C [4]: 94 % of control
- T/C [7]: 69 % of control
- T/C (dose: 225.0 mg/kg/injection, schedule: Q01DX011 (ip), vehicle: saline): 54 % of control

SMILES: CCCCN(C)N=Nc1ccc(S(N)(=O)=O)cc1
- T/C (dose: 4.0 mg/kg/injection, schedule: Q01DX011 (ip), vehicle: carboxymethylcellulose (CMC)): 91 % of control
- T/C (dose: 8.0 mg/kg/injection, schedule: Q01DX011 (ip), vehicle: carboxymethylcellulose (CMC)): 90 % of control and 77 % of control
- T/C (dose: 31.0 mg/kg/injection, schedule: Q01DX011 (ip), vehicle: carboxymethylcellulose (CMC)): 33 % of control
- T/C (dose: 32.0 mg/kg/injection, schedule: Q01DX011 (ip), vehicle: carboxymethylcellulose (CMC)): 108 % of control and 84 % of control
- T/C (dose: 62.0 mg/kg/injection, schedule: Q01DX011 (ip), vehicle: carboxymethylcellulose (CMC)): 42 % of control
- T/C (dose: 93.0 mg/kg/injection, schedule: Q01DX011 (ip), vehicle: carboxymethylcellulose (CMC)): 55 % of control

SMILES: Cn1cnc2c(C(F)(F)F)nc(Cl)nc21
- T/C [1]: 98 % of control
- T/C (dose: 60.0 mg/kg/injection, schedule: Q01DX011 (ip), vehicle: saline): 91 % of control

SMILES: CN1CC[C@]23c4c5ccc(O)c4O[C@H]2C(=O)CC[C@H]3[C@H]1C5
- T/C (dose: 8.0 mg/kg/injection, schedule: Q01DX011 (ip), vehicle: methylcellulose (MC)): 53 % of control and 70 % of control
- T/C (dose: 16.0 mg/kg/injection, schedule: Q01DX011 (ip), vehicle: methylcellulose (MC)): 50 % of control and 75 % of control
- T/C (dose: 32.0 mg/kg/injection, schedule: Q01DX011 (ip), vehicle: methylcellulose (MC)): 61 % of control

SMILES: CN(C)CCO
- T/C [6]: 97 % of control

SMILES: [N-]=[N+]=NC1(C(=O)O)CCCC1
- T/C (dose: 15.0 mg/kg/injection, schedule: Q01DX011 (ip), vehicle: carboxymethylcellulose (CMC)): 109 % of control
- T/C (dose: 30.0 mg/kg/injection, schedule: Q01DX011 (ip), vehicle: carboxymethylcellulose (CMC)): 100 % of control
- T/C (dose: 60.0 mg/kg/injection, schedule: Q01DX011 (ip), vehicle: carboxymethylcellulose (CMC)): 120 % of control

SMILES: Cc1cc(Nc2ccccc2Br)nc(N)n1
- T/C (dose: 15.0 mg/kg/injection, schedule: Q01DX011 (ip), vehicle: methylcellulose (MC)): 65 % of control
- T/C (dose: 31.0 mg/kg/injection, schedule: Q01DX011 (ip), vehicle: methylcellulose (MC)): 69 % of control
- T/C (dose: 62.0 mg/kg/injection, schedule: Q01DX011 (ip), vehicle: methylcellulose (MC)): 112 % of control
- T/C (dose: 125.0 mg/kg/injection, schedule: Q01DX011 (ip), vehicle: methylcellulose (MC)): 78 % of control
- T/C (dose: 250.0 mg/kg/injection, schedule: Q01DX011 (ip), vehicle: methylcellulose (MC)): 76 % of control

SMILES: Cc1cccc(CSc2ncnc3nc[nH]c23)n1
- T/C [8]: 66 % of control
- T/C [9]: 51 % of control
- T/C [10]: 17 % of control
- T/C (dose: 100.0 mg/kg/injection, schedule: Q01DX011 (ip), vehicle: methylcellulose (MC)): 6 % of control

SMILES: Clc1ncnc2c1ncn2C1CCCO1 (stereo not given)
- T/C (dose: 2.34 mg/kg/injection, schedule: Q01DX011 (ip), vehicle: methylcellulose (MC)): 50 % of control
- T/C (dose: 4.68 mg/kg/injection, schedule: Q01DX011 (ip), vehicle: methylcellulose (MC)): 68 % of control
- T/C (dose: 9.37 mg/kg/injection, schedule: Q01DX011 (ip), vehicle: methylcellulose (MC)): 69 % of control
- T/C (dose: 18.75 mg/kg/injection, schedule: Q01DX011 (ip), vehicle: methylcellulose (MC)): 41 % of control
- T/C (dose: 37.5 mg/kg/injection, schedule: Q01DX011 (ip), vehicle: methylcellulose (MC)): 9 % of control
- T/C (dose: 75.0 mg/kg/injection, schedule: Q01DX011 (ip), vehicle: methylcellulose (MC)): 1 % of control

SMILES: CCSc1ncnc2c1ncn2C1OC(CO)C(O)C1O (stereo not given)
- T/C (dose: 6.25 mg/kg/injection, schedule: Q01DX011 (ip), vehicle: saline): 96 % of control
- T/C [8]: 53 % of control
- T/C [3]: 49 % of control
- T/C [9]: 27 % of control
- T/C [4]: 14 % of control
- T/C [10]: 10 % of control
- T/C [5]: 4 % of control

SMILES: Nc1nc(N)c2cnnn2n1
- T/C [4]: 83 % of control
- T/C [7]: 116 % of control
